Experimental data from ChEMBL document CHEMBL3507680, “University of Dundee, Gates Library screen for HepG2 cell viability”.

Assay: Human HepG2 cell viability assay in 384 well format
Format: toxicity, cell-based
Set-up: dose 125 nL, time 70.5 hour; cytotoxicity at 70.5 h: concentration not given beside the values
Settings: HepG2 cells, read-out: Inhibition

SMILES | cytotoxicity at 70.5 h
c1ccc(-c2nnc([C@H]3CCN(C4CCC4)C3)o2)cc1 | 0.134%
COCCN1CC(c2cc(O)nc(NC(C)C)n2)CC1=O (stereo unspecified) | -6.05%
Cc1ccc(Cl)cc1N1CCC(CNC(=O)CCn2ccnn2)C1 (stereo unspecified) | -6.67%
Cc1csc(C2CCCCN2C(=O)CCCn2cccn2)n1 (stereo unspecified) | -11.4%
Cc1oncc1C(=O)N1CCCc2c(C#N)nn(C)c2C1 | -7.62%
CN(C)CC1CN(c2ncnc3[nH]ccc23)CCO1 (stereo unspecified) | 5.61%
Cc1cnn(CCNCc2nnc(-c3ccccc3)o2)c1 | -1.2%
Cc1ccc(CN2CCC3(CC2)C(=O)N(CC(C)C)CCN3C)s1 | 22.7%
Cc1ccc(CN2CCc3c(CN4CCCC4)n[nH]c3C2)s1 | -4.44%
Cc1ccsc1C(Cc1ccccc1)NC(=O)CNC(=O)C1CC1 (stereo unspecified) | -3.91%
Cn1cc(C(=O)NC(Cn2cccn2)C(C)(C)C)cn1 (stereo unspecified) | 2.11%
CC(=O)N1CCC2(CC1)CN(C)CC[C@H]2C(F)(F)F | -4.42%
Cc1cc(C)n(CCN2CCN(C(=O)c3ccc(Br)o3)CC2)n1 | -4.56%
CCc1ccc(CN2C[C@@H](C)C3(CCN(CC(=O)N(C)C)C3=O)C2)o1 (stereo partly specified) | -6.86%
CC(=O)Nc1ccc(S(=O)(=O)Nc2c(F)cccc2F)cc1 | 1.02%
COC1CCN(C(=O)c2nn(-c3ccc(C(C)C)cc3)cc2O)CC1 | 10.9%
CCCn1nccc1C(=O)N1CCN(C2CCc3ccccc3C2)CC1 (stereo unspecified) | -7.89%
O=C1CC(c2ccncc2)C2(CCN(CC3CC3)CC2)N1 (stereo unspecified) | 14.8%
COc1c(C)cnc(CN2CCCC2Cn2nc(C)nc2C)c1C (stereo unspecified) | -3.93%
O=C(CC1CC1)NCc1cn2c(n1)CN(Cc1nccs1)CC2 | -6.29%
Cc1ccc(F)c2c1CCCN2C(=O)c1cn(CC(=O)N(C)C)nn1 | -7.17%

SMILES | cytotoxicity at 70.5 h
O=C(c1ccccc1Cl)N1CC[C@H](O)[C@@H](N2CCOCC2)CC1 | -4.63%
Cc1nonc1C(=O)N1CCc2c(ncn2CCc2ccccc2)C1 | -7.1%
CN(C)C(=O)c1cc2c(s1)CCN(C(=O)CCCN1CCCCC1)C2 | -6.61%
Cc1cccc(OC2CCN(Cc3ncc[nH]3)CC2)c1 | 15.5%
C[C@H]1CC[C@H](C(=O)N2CCC(n3cc(C4(O)CCCC4)nn3)CC2)CC1 | -16.2%
NC(=O)c1cccc(CNC(=O)NCCOc2ccc(F)c(F)c2)c1 | -2.9%
CN1CCOC(CNCc2csc(C3CCCCC3)n2)C1 (stereo unspecified) | -13.3%
CCN(CC)C(=O)c1ccc(NC(=O)CNc2ccc(Br)cc2F)cc1 | 4.87%
Cn1nc(Br)c2c(NCCNc3ncccn3)ncnc21 | -21.3%
Cc1cnc(N2CCC(c3ccccc3)CC2)nc1-c1ccnn1C | -6.13%
Cc1nc(C)c(CCNC(Cc2ccncc2)C(F)(F)F)s1 (stereo unspecified) | 2.53%
CC(=O)N1CCC[C@H]1C(=O)N(C)CCCOc1ccccc1 | -2.16%
Cc1cc(C)cc(N(CCC#N)C(=O)CN2CCCC2c2cccs2)c1 (stereo unspecified) | 25.9%
Cc1ccc(Cl)c2ccc(NC(CO)CO)nc12 | 0.998%
CN(C)CC(=O)N1CCCC2(CCC(=O)N(CCc3c[nH]cn3)C2)C1 (stereo unspecified) | -14.8%
Cn1nnc2c1C(COCC1CC1)CN(C(=O)Cc1ccccn1)C2 (stereo unspecified) | -2.19%
O=C(c1cnccn1)N1CCCC2(CCN(Cc3ccsc3)CC2)C1 | 3.52%
CCN(CC)C1COc2c(cc(Br)c(C)c2Br)C1=O (stereo unspecified) | -7.72%
Cc1cc(C(=O)N(C)Cc2nc(-c3ccccn3)no2)c(C)o1 | -4.74%
COc1ccc(-c2cc(C(=O)NCCCn3ccnc3C)n(C)n2)cc1 | -4.65%
Cc1nc(-c2noc3ccc(C(=O)NCCN4CCOCC4)cc23)cs1 | -8.24%

SMILES | cytotoxicity at 70.5 h
O=C(NCC(=O)N1CCCC1)c1nc(Cc2c(Cl)cccc2Cl)no1 | -16.3%
NC(=O)NCC1CCCCN1C(=O)c1cc(F)cc(F)c1 (stereo unspecified) | -2.44%
CN(CCCSc1ccccc1)C(=O)Cn1ncc(N(C)C)cc1=O | -7.24%
CCc1noc(CN2CCN(Cc3cccs3)CC2)n1 | -10%
CC(C)Cc1noc(CN(C)c2cc(C(C)C)nc3ccnn23)n1 | 5.41%
Cn1nc(C2CCCN(Cc3ccccc3)C2)c2nccnc21 (stereo unspecified) | 2.89%
CN1C(=O)C2(CC(=O)Nc3[nH]ncc32)c2cc(Cl)ccc21 (stereo unspecified) | -29.3%
COC(=O)C(C)(C)NC(=O)c1cnc(C(C)(C)C)s1 | -1.58%
Cc1ncc2c(n1)CN(CCOc1ccc3c(c1)CCC(=O)N3)CC2 | -6.43%
CS(=O)(=O)N1CCCC12CCCN(S(=O)(=O)c1ccc(F)cc1)C2 (stereo unspecified) | -8.04%
CCOCC1CCN(C(=O)C(c2ccc(F)cc2)N(C)C)CC1 (stereo unspecified) | -8%
O=C(c1cc(-n2cccn2)ccn1)N(CC(F)(F)F)C1CCCC1 | -2.14%
Cc1ccc(S(=O)(=O)NC[C@H]2OC[C@@H](NCc3ccccc3)[C@@H]2O)cc1 | -10%
Cn1ccc(CN2CCCC23CCN(Cc2nccn2C)CC3)n1 | -2.05%
O=C(NC1CC1)c1ccnc(N2CCOC(c3ccc(Cl)cc3)C2)c1 (stereo unspecified) | 7.4%
CC(C)NC(=O)[C@@H]1CCO[C@@H]2CCN(c3ncccn3)C[C@H]21 | 0.612%
O=C(NC1CC1)[C@@H]1CCO[C@@H]2CCN(Cc3ccsc3)C[C@H]21 | -2.46%
CS(=O)(=O)CCCNC(=O)C1(c2cccc(Cl)c2)CC1 | -12.8%
CCN(c1ccc(C(=O)N2CCCCC2)cc1)S(=O)(=O)CC | -9.5%
CN1C(=O)CC(C(=O)O)C12CCN(Cc1ccc(F)c(Cl)c1)CC2 (stereo unspecified) | 0.558%
Cc1nc(NCc2ccco2)nc2c1COCC21CCNC1 (stereo unspecified) | -8.24%

SMILES | cytotoxicity at 70.5 h
Cc1ccc(C(=O)N2CCC(Oc3c(C)cccc3C)CC2)c(=O)[nH]1 | 0.338%
Fc1cnc(N2CCn3cc(CNc4ccccn4)nc3C2)nc1 | -17.4%
NC(=O)c1cccc(CNC/C=C/c2ccccc2)c1 | 12.6%
N#Cc1ccccc1NC(=O)c1ccc2c(c1)OCO2 | -0.874%
CN(C)C(=O)COC[C@]12COC[C@H]1CN(CCc1ccccc1)C2 | -1.91%
CN1CCN(c2ncnc3c2CCN(c2ncc(F)cn2)CC3)CC1 | -1.02%
c1cncc(OCc2noc3c2CN(Cc2ccsc2)CC3)c1 | 15.9%
CC(C)CCNc1nc(C(=O)NC2CC2)cs1 | 6.98%
COc1ccc(CN(C)C(=O)CCc2c(C)nc(C)[nH]c2=O)cc1OC | -7.96%
Cc1ncsc1CCC(=O)N1CCCC[C@H](N(C)C)C1 | 16.9%
Cc1ccc2c(c1)CCC21CCN(CCO)CC1 | -1.71%
Cc1ccc(-n2c(COCC(=O)O)nc3c(C)cccc32)nc1 | -4.5%
COc1ccc(Oc2ncccc2NC(=O)N2CCOCC2)cc1 | -6.42%
Cn1cnnc1S(=O)(=O)C1CCN(C(=O)c2ccco2)CC1 | 10.3%
CCCc1nnsc1C(=O)N1CCN(CC(O)C2CC2)CC1 (stereo unspecified) | 14.6%
c1cc(N2CCOCC(Cc3ccc4[nH]ccc4c3)C2)ncn1 (stereo unspecified) | -8.81%
COCCCN1Cc2cccc(NC(=O)c3cc(F)ccc3F)c2C1 | -9.4%
COc1ccc(Br)c(C(=O)N2CCCC(c3nc(C)no3)C2)c1 (stereo unspecified) | -9.43%
